Assay results as given in patent publication US10752640B2, “Compounds active towards bromodomains” (NUEVOLUTION A/S, priority 2014, dated 2020).

Target: BRD4 protein (Homo sapiens, UniProt O60885)
Assay: FRET assay, half maximal inhibitory concentration (IC50)
Assay type: binding
Settings: BRD4 protein 50 nM, Biotin-H4KAc4 peptide 12.5 nM; A Further List of Classification
Method in brief: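 Acetylated histone H4 peptide binding (biotin-H4KAc4, 12.5 nM final) to BRD4 (50 nM final) detected by TR-FRET between streptavidin cryptate (2.4 nM) and GST-XL665 antibody (10 nM) in KF/BSA. Buffer: HEPES pH 7.5, NaCl, CHAPS. Compound dilutions from 50 μM in 12.5% DMSO were preincubated with protein for 30 min. Variable-slope IC50.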

| SMILES | IC50 |
| --- | --- |
| COC1CCN(Cc2ccc(N3CCCC3)c(C(=O)Nc3ccc4nc(O)cc(C)c4c3)c2)C1 (centres unmarked) [S88, N-(2-hydroxy-4-methyl-6-quinolyl)-5-[(3-methoxypyrrolidin-1-yl)methyl]-2-pyrrolidin-1-yl-benzamide] | < 200 nM |
| Cc1cc(O)nc2ccc(NC(=O)c3cc(CN4CC(O)C4)ccc3N3CCCC3)cc12 [S89, 5-[(3-hydroxyazetidin-1-yl)methyl]-N-(2-hydroxy-4-methyl-6-quinolyl)-2-pyrrolidin-1-yl-benzamide] | < 200 nM |
| COCC1CN(Cc2ccc(N3CCCC3)c(C(=O)Nc3ccc4nc(O)cc(C)c4c3)c2)C1 [S90, N-(2-hydroxy-4-methyl-6-quinolyl)-5-[[3-(methoxymethyl)azetidin-1-yl]methyl]-2-pyrrolidin-1-yl-benzamide] | < 200 nM |
| COCC1CCCN(Cc2ccc(N3CCCC3)c(C(=O)Nc3ccc4nc(O)cc(C)c4c3)c2)C1 (centres unmarked) [S91, N-(2-hydroxy-4-methyl-6-quinolyl)-5-[[3-(methoxymethyl)-1-piperidyl]methyl]-2-pyrrolidin-1-yl-benzamide] | < 200 nM |
| Cc1cc(O)nc2ccc(NC(=O)c3cc(CN4CCOCC4)cnc3N3CCC(C)C3)cc12 (centres unmarked) [S93, N-(2-hydroxy-4-methyl-6-quinolyl)-2-(3-methylpyrrolidin-1-yl)-5-(morpholinomethyl)pyridine-3-carboxamide] | < 200 nM |
| Cc1cc(O)nc2ccc(NC(=O)c3cc(CN4CCOCC4)cnc3N3CCCC3C)cc12 (centres unmarked) [S94, N-(2-hydroxy-4-methyl-6-quinolyl)-2-(2-methylpyrrolidin-1-yl)-5-(morpholinomethyl)pyridine-3-carboxamide] | 200 to 500 nM |
| Cc1cc(O)nc2ccc(NC(=O)c3cc(CN4CCOCC4)cnc3N3CCC(C)(F)C3)cc12 (centres unmarked) [S97, 2-(3-fluoro-3-methyl-pyrrolidin-1-yl)-N-(2-hydroxy-4-methyl-6-quinolyl)-5-(morpholinomethyl)pyridine-3-carboxamide] | 200 to 500 nM |
| Cc1cc(O)nc2ccc(NC(=O)c3cc(CN4CCOCC4)cnc3N3CCC(C(N)=O)C3)cc12 (centres unmarked) [S98, 2-(3-carbamoylpyrrolidin-1-yl)-N-(2-hydroxy-4-methyl-6-quinolyl)-5-(morpholinomethyl)pyridine-3-carboxamide] | 500 to 1000 nM |
| Cc1cc(O)nc2ccc(NC(=O)c3cc(CN4CCOCC4)cnc3N3CCC(CC(C)C)C3)cc12 (centres unmarked) [S101, N-(2-hydroxy-4-methyl-6-quinolyl)-2-(3-isobutylpyrrolidin-1-yl)-5-(morpholinomethyl)pyridine-3-carboxamide] | 1000 to 10000 nM |
| Cc1cc(O)nc2ccc(NC(=O)c3cc(CN4CCOCC4)cnc3N3CCC(N4CCCC4)C3)cc12 (centres unmarked) [S107, N-(2-hydroxy-4-methyl-6-quinolyl)-5-(morpholinomethyl)-2-(3-pyrrolidin-1-ylpyrrolidin-1-yl)pyridine-3-carboxamide] | 1000 to 10000 nM |
| Cc1cc(O)nc2ccc(NC(=O)c3cc(CN4CCOCC4)cnc3N3CCCC3C(=O)N(C)C)cc12 (centres unmarked) [S109, 2-[2-(dimethylcarbamoyl)pyrrolidin-1-yl]-N-(2-hydroxy-4-methyl-6-quinolyl)-5-(morpholinomethyl)pyridine-3-carboxamide] | 500 to 1000 nM |
| Cc1cc(O)nc2ccc(NC(=O)c3cc(CN4CCOCC4)cnc3N3CCC(c4ccncc4)C3)cc12 (centres unmarked) [S111, N-(2-hydroxy-4-methyl-6-quinolyl)-5-(morpholinomethyl)-2-[3-(4-pyridyl)pyrrolidin-1-yl]pyridine-3-carboxamide] | 500 to 1000 nM |
| Cc1cc(O)nc2ccc(NC(=O)c3cc(CN4CCOCC4)cnc3N3CCOC(CO)C3)cc12 (centres unmarked) [S114, 2-[2-(hydroxymethyl)morpholin-4-yl]-N-(2-hydroxy-4-methyl-6-quinolyl)-5-(morpholinomethyl)pyridine-3-carboxamide] | > 10000 nM |
| Cc1cc(O)nc2ccc(NC(=O)c3cc(CN4CCOCC4)cnc3N3CC(CO)OCC3C)cc12 (centres unmarked) [S115, 2-[2-(hydroxymethyl)-5-methyl-morpholin-4-yl]-N-(2-hydroxy-4-methyl-6-quinolyl)-5-(morpholinomethyl)pyridine-3-carboxamide] | > 10000 nM |
